Values quoted from earlier work, collected in US11648213B2, “Transdermal therapeutic system containing asenapine” (LTS LOHMANN THERAPIE-SYSTEME AG, priority 2018, dated 2023).

Columns and labels:
[1] = biological target: serotonin 5-HT2A receptors (Homo sapiens, UniProt P28223); settings: antagonist
[2] = in vivo

serotonin 5-HT2A receptors, sequence (P28223 whole entry): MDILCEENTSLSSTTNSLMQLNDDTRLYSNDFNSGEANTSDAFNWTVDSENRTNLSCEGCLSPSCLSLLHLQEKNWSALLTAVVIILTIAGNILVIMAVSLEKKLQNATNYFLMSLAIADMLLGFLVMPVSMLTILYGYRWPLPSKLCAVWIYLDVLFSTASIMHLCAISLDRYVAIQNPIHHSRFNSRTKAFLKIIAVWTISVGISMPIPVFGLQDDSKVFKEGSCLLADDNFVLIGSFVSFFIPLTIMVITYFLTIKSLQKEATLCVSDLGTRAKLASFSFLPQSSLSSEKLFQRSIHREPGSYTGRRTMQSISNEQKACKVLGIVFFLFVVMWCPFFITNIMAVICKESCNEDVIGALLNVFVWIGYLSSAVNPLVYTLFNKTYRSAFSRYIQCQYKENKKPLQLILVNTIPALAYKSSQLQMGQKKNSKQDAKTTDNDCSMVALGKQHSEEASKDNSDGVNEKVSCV

CN1C[C@H]2c3ccccc3Oc3ccc(Cl)cc3[C@@H]2C1 (relative stereo) [asenapine, (3aRS,12bRS)-rel-5-chloro-2,3,3a,12b-tetrahydro-2-methyl-1H-dibenz[2,3:6,7]oxepino[4,5-c]pyrrole]
terminal disposition half-life (following sublingual administration, therapeutic doses): ≥ 24 h | bioavailability (if ingested): < 2% | affinity to serotonin 5-HT2A receptors [1]: high affinity | Somnolence and anxiety (very common), share of the patients [2]: ≥ 10%
